Counter-ions that a name gives are not always drawn. Like-named read-outs stand apart in the source and are kept apart here.
Legend:
[1] = Food intake in dogs, pyramiding oral doses (Examples 26 and 27); type: in vivo, beagle dogs
Method: Twelve beagle dogs of both sexes weighing 7.6-12.2 kg were used for this test. The test compounds were contained in gelatin capsules for oral administration to two dogs of each sex. The animals were weighed and food consumption calculated daily excluding weekends throughout the test period. Each animal received 800 grams of diet daily consisting of 400 grams of Wayne pellet dog food mixed with 400 ml distilled water. The animals received pyramiding oral doses of the test compound over the three week period. On Monday and Tuesday of the first week the animals were weighed and food consumption was recorded (control). […] Doses of 30, 100 and 300 mg/kg were administered on Monday, Wednesday and Friday respectively during the second week. A final dose of 1000 mg/kg was administered on Monday of the third week.
Food intake was determined by the procedure at pyramiding doses described in EXAMPLE 26.

[2] = Comparative anorectic activity, food consumption of meal-fed rats (Example 13); type: in vivo, Charles River female rats; settings: 3 hr meal
Method: Charles River female rats (Charles River Breeding Laboratories, Wilmington, Mass.), weighing 150 to 175 g, were individually housed in wire-bottomed cages in a temperature-regulated (22° C.) light-controlled room (12 hr light, 6 a.m. to 6 p.m. and 12 hr dark, 6 p.m. to 6 a.m.). Animals were fasted 48 hr, then meal-fed the 70% glucose diet described by A. C. Sullivan, et al., J. Nutrition, 101, 265 (1971) from 8 to 11 a.m. Following 5 to 13 days alimentation on the meal-feeding regimen, rats were dosed with the appropriate compounds orally by intubation 1/2 hr before the 3 hr meal. Food cups were weighed immediately after the meal. The control group consists of 31 rats while each drug treated group consists of 5 to 12 rats.
The G-70 diet consisted of 70% glucose, 23% vitamin-free casein, 5% Phillips and Hart salt mixture IV, 1% corn oil, 1% complete vitamin mixture, and 40 g/kg cellulose. To ensure complete uniformity, all diets were mixed with a twen-shell dry blender equipped with an itensifier bar (Patterson-Kelley Co., East Stroudsburg, Pa.).

isolated rat hepatocytes = assay: Fatty acid and cholesterol synthesis and CO2 production in isolated hepatocytes (Example 23); type: cell-based, Female Charles River rats; settings: for activity at 2000 µM: Rattus norvegicus, Hepatocyte, 1 h, 2 mM, 60 min, 37° C.
Method: Female Charles River rats were fasted 48 hr, then meal-fed a 1% corn oil, 70% glucose diet for 7 to 14 days from 8 to 11 a.m. The isolated rat hepatocytes were prepared by perfusing the liver in situ. The hepatocytes were incubated in an oscillating water bath at 37° C. for 60 min. […] All incubations were done in triplicate and all experiments were repeated at least twice. […] The contents of the center well were transferred to scintillation counting fluid and ^14 CO2 content was determined. […] The media was then acidified, extracted with hexane, and the extract counted (to determine the rate of lipogenesis). The conversion of ^3 H2 O and [^14 C]alanine into fatty acids or sterols was determined in a PDS/3, Mark II liquid scintillation counting system.

[3] = Effect on stomach emptying, [14C] glucose load (Example 25); type: in vivo, Rats; settings: for Serum, % of control / Stomach Contents, % of control: 0.33 mmoles/kg oral, 60 min after [14C] glucose load
Method: Rats were trained to consume a 3 hr 70% glucose meal from 8 a.m. to 11 a.m. daily. On the experimental day, compounds were administered orally by intubation 30 min before a [^14 C] glucose load was given also by intubation. […] Sixty minutes later the rats were killed by decapitation; blood and stomachs were collected on ice.
Data are expressed as follows: dpm×10^3 per ml of serum and dpm×10^3 per stomach.

[4] = Anorectic activities of stereoisomers, 3-day food consumption and body weight gain (Example 16); type: in vivo, Charles River female rats; settings: 1.32 mmoles/kg oral, 3 days
Method: Charles River female rats (Charles River Breeding Laboratories, Wilmington, Mass.), weighing 196 to 210 g, were individually housed in wire-bottomed cages in a temperature-regulated (22° C.) light-controlled room (12 hr light, 6 a.m. to 6 p.m. and 12 hr dark, 6 p.m. to 6 a.m.). Animals were fasted 48 hr, then meal-fed a 70% glucose diet from 8 to 11 a.m. Following 5 to 12 days alimentation on the meal-feeding regimen, rats were dosed with the appropriate compounds orally by intubation 1/2 hr before the 3 hr meal for 3 days. The total food consumption and body weight gained during the 3 day period were determined. The control group consisted of 16 rats, while the experimental group consists of 8 rats.

[5] = Effect of stereoisomers on food consumption of meal-fed rats (Example 14); type: in vivo, Charles River female rats
Method: Animals were fasted 48 hr, then meal-fed the 70% glucose diet described by A. C. […] Following 5 to 12 days alimentation on the meal-feeding regimen, rats were dosed with the appropriate compounds orally by intubation 1/2 hr before the 3 hr meal. Food cups were weighed immediately after the meal. The control group consisted of 5 to 10 rats, while the experimental group consisted of 4 to 6 rats.

[6] = Anorectic effect in 8 hour meal-fed Zucker rats (Example 17); type: in vivo, lean (Fa/-) and obese (fa/fa)
Method: Lean (Fa/-) Zucker rats and obese (fa/fa) Zucker rats of both sexes were individually housed in wire-bottomed cages in a temperature-regulated (22° C.) light-controlled room (12 hr light, 6 a.m. to 6 p.m. and 12 hr dark, 6 p.m. to 6 a.m.). The animals were fed a high carbohydrate (70% glucose) diet ad libitum for 13 days, dosed with the indicated compounds by oral intubation for 9 days and allowed to recover for 3 days. The animals were then meal fed from 8 a.m. to 4 p.m. for a period of 5 days, following which they were continued on the same meal schedule for an additional 6 days. During the 6-day period, the animals were administered the indicated compounds by oral intubation at 8 a.m. and 12 p.m. Food cups were weighed immediately after the meal.

[7] = test day 8, dose 100 mg/kg oral
[8] = test day 10, dose 300 mg/kg oral
[9] = test day 13, dose 1000 mg/kg oral

O=C(O)C[C@@](O)(C(=O)O)[C@@H](Cl)C(=O)O (relative stereo) [(±)-threo-Chlorocitric acid]
Food Consumption ([1]; test day 1, dose 3 mg/kg oral): 616 ± 79 g | Food Consumption, % of control ([1]; test day 1, dose 3 mg/kg oral): 129 % of control | Food Consumption ([1]; test day 2, no dose): 392 ± 140 g | Food Consumption, % of control ([1]; test day 2, no dose): 82 % of control | Food Consumption ([1]; test day 3, dose 10 mg/kg oral): 460 ± 136 g | Food Consumption, % of control ([1]; test day 3, dose 10 mg/kg oral): 96 % of control | Food Consumption ([1]; test day 6, dose 30 mg/kg oral): 511 ± 104 g | Food Consumption, % of control ([1]; test day 6, dose 30 mg/kg oral): 107 % of control | Food Consumption, % of control ([1]; test day 7, no dose): 100 % of control | Food Consumption [1, 7]: 299 ± 176 g | Food Consumption, % of control [1, 7]: 62 % of control | Food Consumption ([1]; test day 9, no dose): 492 ± 110 g | Food Consumption, % of control ([1]; test day 9, no dose): 103 % of control | Food Consumption [1, 8]: 316 ± 109 g | Food Consumption, % of control [1, 8]: 66 % of control | Food Consumption [1, 9]: 164 ± 61 g | Food Consumption, % of control [1, 9]: 34 % of control | Food Consumption ([1]; test day 14, no dose): 560 ± 136 g | Food Consumption, % of control ([1]; test day 14, no dose): 117 % of control | Food Consumption ([1]; test day 15, no dose): 543 ± 92 g | Food Consumption, % of control ([1]; test day 15, no dose): 113 % of control | Food Consumption ([1]; test day 16, no dose): 624 ± 88 g | Food Consumption, % of control ([1]; test day 16, no dose): 130 % of control | Food Consumption ([1]; test day 17, no dose): 645 ± 93 g | Food Consumption, % of control ([1]; test day 17, no dose): 135 % of control | Food Consumption ([1]; test day 21, no dose): 561 ± 83 g | Food Consumption, % of control ([1]; test day 21, no dose): 117 % of control | Food Consumption ([1]; test day 22, no dose): 649 ± 91 g | Food Consumption, % of control ([1]; test day 22, no dose): 135 % of control | Food Consumption ([1]; test day 23, no dose): 533 ± 118 g | Food Consumption, % of control ([1]; test day 23, no dose): 111 % of control | Food Consumption ([1]; test day 24, no dose): 477 ± 114 g | Food Consumption, % of control ([1]; test day 24, no dose): 100 % of control | Food Consumption ([1]; test day 27, no dose): 518 ± 139 g | Food Consumption, % of control ([1]; test day 27, no dose): 108 % of control | Food Consumption ([1]; test day 28, no dose): 663 ± 137 g | Food Consumption, % of control ([1]; test day 28, no dose): 138 % of control | Food Consumption, % of control ([2]; 0.08 mmoles/kg oral): 57 % of control | Food Consumption, % of control ([2]; 0.17 mmoles/kg oral): 61 % of control | Food Consumption, % of control ([2]; 0.33 mmoles/kg oral): 51 % of control | Food Consumption, % of control ([2]; 0.66 mmoles/kg oral): 35 % of control | Food Consumption, % of control ([2]; 1.32 mmoles/kg oral): 28 % of control | Food Consumption, % of control ([2]; 2.63 mmoles/kg oral): 34 % of control

O=C(O)CC(O)(C(=O)O)C(O)C(=O)O (single isomer, unassigned) [hydroxycitric acid, reference compound]
inhibition of lipid (fatty acid) and cholesterol syntheses (isolated rat hepatocytes; in words): inhibition of fatty acid and cholesterol syntheses | gastric emptying ([3]; in words, comparable doses): delayed gastric emptying

O=C(O)C[C@@](O)(C(=O)O)[C@H](Cl)C(=O)O [(+)-erythro-Chlorocitric acid]
Serum, % of control [3]: 88 % of control | Stomach Contents, % of control [3]: 207 % of control | 3-Day Body Weight Gain, % of initial body weight [4]: -0.7 % of initial body weight | 3-Day Food Consumption, % of control [4]: 111 % of control | Food Consumption, % of control ([5]; 0.66 mmoles/kg oral): 99 % of control | Food Consumption, % of control ([5]; 2.63 mmoles/kg oral): 78 % of control

O=C(O)C[C@](O)(C(=O)O)[C@@H](Cl)C(=O)O [(-)-erythro-Chlorocitric acid]
Serum, % of control [3]: 90 % of control | Stomach Contents, % of control [3]: 169 % of control | 3-Day Body Weight Gain, % of initial body weight [4]: -2.4 % of initial body weight | 3-Day Food Consumption, % of control [4]: 86 % of control | Food Consumption, % of control ([5]; 0.66 mmoles/kg oral): 85 % of control | Food Consumption, % of control ([5]; 2.63 mmoles/kg oral): 53 % of control

O=C(O)CC(O)(CC(=O)O)C(=O)O [Citric Acid]
Food Consumption, % of control ([5]; 2.63 mmoles/kg oral): 94 % of control | Daily Food Consumption ([6]; Fa/-- lean, 1.32 mmoles/kg group, pretreatment day 0): 11.0 ± 0.8 g | Daily Food Consumption ([6]; Fa/-- lean, 1.32 mmoles/kg oral, day 1): 10.6 ± 1.2 g | Daily Food Consumption ([6]; Fa/-- lean, 1.32 mmoles/kg oral, day 2): 10.0 ± 1.2 g | Daily Food Consumption ([6]; Fa/-- lean, 1.32 mmoles/kg oral, day 3): 12.7 ± 1.0 g | Daily Food Consumption ([6]; Fa/-- lean, 1.32 mmoles/kg oral, day 4): 11.9 ± 0.7 g | Daily Food Consumption ([6]; Fa/-- lean, 1.32 mmoles/kg oral, day 5): 12.6 g | Daily Food Consumption ([6]; Fa/-- lean, 1.32 mmoles/kg oral, day 6): 13.1 ± 0.9 g | Daily Food Consumption ([6]; fa/fa obese, 1.32 mmoles/kg group, pretreatment day 0): 13.4 ± 0.8 g | Daily Food Consumption ([6]; fa/fa obese, 1.32 mmoles/kg oral, day 1): 11.4 ± 0.8 g | Daily Food Consumption ([6]; fa/fa obese, 1.32 mmoles/kg oral, day 2): 13.8 ± 1.2 g | Daily Food Consumption ([6]; fa/fa obese, 1.32 mmoles/kg oral, day 3): 16.5 ± 1.0 g | Daily Food Consumption ([6]; fa/fa obese, 1.32 mmoles/kg oral, day 4): 14.8 ± 0.9 g | Daily Food Consumption ([6]; fa/fa obese, 1.32 mmoles/kg oral, day 6): 16.0 ± 1.0 g

O=C(O)C[C@@](O)(C(=O)O)[C@H](O)C(=O)O [Trisodium (-)-threo-hydroxycitrate, reference compound]
activity at 2000 µM (isolated rat hepatocytes; read-out: CO2 Production, [14C]alanine converted): 103% | activity at 2000 µM (isolated rat hepatocytes; read-out: Cholesterol Synthesis, 3H2O converted): 60% | activity at 2000 µM (isolated rat hepatocytes; read-out: Cholesterol Synthesis, [14C]alanine converted): 18% | activity at 2000 µM (isolated rat hepatocytes; read-out: Fatty Acid Synthesis, 3H2O converted): 54% | activity at 2000 µM (isolated rat hepatocytes; read-out: Fatty Acid Synthesis, [14C]alanine converted): 30% | Serum, % of control [3]: 79 % of control | Stomach Contents, % of control [3]: 223 % of control | Food Consumption, % of control ([2]; 0.33 mmoles/kg oral): 103 % of control | Food Consumption, % of control ([2]; 0.66 mmoles/kg oral): 80 % of control | Food Consumption, % of control ([2]; 1.32 mmoles/kg oral): 88 % of control | Food Consumption, % of control ([2]; 2.63 mmoles/kg oral): 79 % of control

O=C(O)CC(O)(CC(=O)O)C(=O)O [Trisodium Citrate, reference compound]
Serum, % of control [3]: 112 % of control | Stomach Contents, % of control [3]: 133 % of control

Reference: patent publication US4354039A, “Chlorocitric acids” (Hoffmann-La Roche Inc., priority 1981, dated 1982)
